Laboratory results: patent US12612384B2, “Heterocyclic CYP4A inhibitor compounds and compositions thereof” (MBD CO., LTD., priority 2021, dated 2026)

Biological target: T1, CYP4A (Homo sapiens, UniProt Q02928)
T1 construct: purchased; host or cells: bacterial membranes ('bactosome')
T1 sequence (Q02928 5-519): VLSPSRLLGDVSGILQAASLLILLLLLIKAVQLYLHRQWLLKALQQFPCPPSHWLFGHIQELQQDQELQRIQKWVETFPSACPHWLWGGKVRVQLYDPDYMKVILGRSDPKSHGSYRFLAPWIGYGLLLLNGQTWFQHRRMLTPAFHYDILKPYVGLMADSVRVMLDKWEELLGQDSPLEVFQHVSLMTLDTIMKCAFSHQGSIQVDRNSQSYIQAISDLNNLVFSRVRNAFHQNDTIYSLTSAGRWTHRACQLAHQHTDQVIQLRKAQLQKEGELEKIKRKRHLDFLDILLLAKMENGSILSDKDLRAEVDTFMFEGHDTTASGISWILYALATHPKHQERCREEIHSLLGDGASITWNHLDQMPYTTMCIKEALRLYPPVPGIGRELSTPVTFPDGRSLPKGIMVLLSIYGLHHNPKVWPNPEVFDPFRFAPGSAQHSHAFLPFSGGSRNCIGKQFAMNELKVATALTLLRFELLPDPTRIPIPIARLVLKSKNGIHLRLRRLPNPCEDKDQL
Test: CYP4A enzyme assay (luminescence, Luciferin-ME)
Format: biochemical
Settings: Compound concentration 5 μM; Greater than 90%; read-out: % Inhibition Greater than 90%
Description: The CYP4A inhibitory activity of the above compounds of the examples was measured. The reagents used in the experiment were commercially available, and were prepared and used when necessary. The device used for measuring activity was SpectraMax of MOLECULAR DEVICES.
CYP4A bactosome and the compounds to be evaluated (5 μM) were each diluted in assay buffer (100 mM KPO4, 0.1% BSA, 1 mM DTT) and mixed in a 384 well plate (white opaque polystyrene nontreated flat-bottom well), and reaction was carried out at room temperature for 15 minutes. To induce CYP4A reaction, 5 mM Luciferin-ME, NADPH Regeneration system (10× sol. A, 20× sol. B in assay buffer, Cat. Number: V865B, Promega) were sequentially added and mixed, and the reaction was carried out at room temperature for 30 minutes. Then, Luciferin Detection reagent was added thereto and reacted at room temperature for 15 minutes to stop the CYP4A reaction and induce a luminescence reaction. Finally, after measuring the luminescence value using a microplate reader, the inhibition of CYP4A activity by the compounds was evaluated by comparing the luminescence value from each well.

SMILES	inhibition at 5 µM
CC(=O)Nc1ccc(S(=O)(=O)N2CC[C@@H](C(=O)N3CCN(c4ccnc5cc(F)ccc45)CC3)C2)cc1 [Example 2, (R)—N-(4-((3-(4-(7-fluoroquinolin-4-yl)piperazine-1-carbonyl)pyrrolidin-1-yl)sulfonyl)phenyl)acetamide]	> 90%
O=C(C1CCN(S(=O)(=O)c2ccc(O)cc2)C1)N1CCN(c2ccnc3cc(F)ccc23)CC1 (stereo not shown) [Example 4, (4-(7-fluoroquinolin-4-yl)piperazin-1-yl)(1-((4-hydroxyphenyl)sulfonyl)pyrrolidin-3-yl)methanone]	> 90%
O=C(C1CCN(S(=O)(=O)c2ccc([N+](=O)[O-])cc2)C1)N1CCN(c2ccnc3cc(F)ccc23)CC1 (stereo not shown) [Example 8, (4-(7-fluoroquinolin-4-yl)piperazin-1-yl)(1-((4-nitrophenyl)sulfonyl)pyrrolidin-3-yl)methanone]	> 90%
CC(=O)Nc1cccc(S(=O)(=O)N2CCC(C(=O)N3CCN(c4ccnc5cc(F)ccc45)CC3)C2)c1 (stereo not shown) [Example 9, N-(3-((3-(4-(7-fluoroquinolin-4-yl)piperazine-1-carbonyl)pyrrolidin-1-yl)sulfonyl)phenyl)acetamide]	> 90%
Cc1n[nH]c(C)c1S(=O)(=O)N1CCC(C(=O)N2CCN(c3ccnc4cc(F)ccc34)CC2)C1 (stereo not shown) [Example 11, (1-((3,5-dimethyl-1H-pyrazol-4-yl)sulfonyl)pyrrolidin-3-yl)(4-(7-fluoroquinolin-4-yl)piperazin-1-yl)methanone]	> 90%

More lines, now with the values ahead:

inhibition at 5 µM	SMILES
> 90%	CC(=O)Nc1ccc(S(=O)(=O)N2CCC(C(=O)N3CCN(c4ccnc5cc(F)ccc45)CC3)C2)cc1 (stereo not shown) [Example 1, N-(4-((3-(4-(7-fluoroquinolin-4-yl)piperazine-1-carbonyl)pyrrolidin-1-yl)sulfonyl)phenyl)acetamide]
> 90%	CN(C)c1ccc(S(=O)(=O)N2CCC(C(=O)N3CCN(c4ccnc5cc(F)ccc45)CC3)C2)cc1 (stereo not shown) [Example 3, (1-((4-(dimethylamino)phenyl)sulfonyl)pyrrolidin-3-yl)(4-(7-fluoroquinolin-4-yl)piperazin-1-yl)methanone]
> 90%	Cn1ccnc1S(=O)(=O)N1CCC(C(=O)N2CCN(c3ccnc4cc(F)ccc34)CC2)C1 (stereo not shown) [Example 5, (4-(7-fluoroquinolin-4-yl)piperazin-1-yl)(1-((1-methyl-1H-imidazol-2-yl)sulfonyl)pyrrolidin-3-yl)methanone]
> 90%	Cn1ccnc1S(=O)(=O)N1CC[C@@H](C(=O)N2CCN(c3ccnc4cc(F)ccc34)CC2)C1 [Example 6, (R)-(4-(7-fluoroquinolin-4-yl)piperazin-1-yl)(1-((1-methyl-1H-imidazol-2-yl)sulfonyl)pyrrolidin-3-yl)methanone]
> 90%	Cn1ccnc1S(=O)(=O)N1CC[C@H](C(=O)N2CCN(c3ccnc4cc(F)ccc34)CC2)C1 [Example 7, (S)-(4-(7-fluoroquinolin-4-yl)piperazin-1-yl)(1-((1-methyl-1H-imidazol-2-yl)sulfonyl)pyrrolidin-3-yl)methanone]
> 90%	O=C(C1CCN(S(=O)(=O)c2ncn[nH]2)C1)N1CCN(c2ccnc3cc(F)ccc23)CC1 (stereo not shown) [Example 10, (1-((1H-1,2,4-triazol-5-yl)sulfonyl)pyrrolidin-3-yl)(4-(7-fluoroquinolin-4-yl)piperazin-1-yl)methanone]
> 90%	Cc1nn(C)c(C)c1S(=O)(=O)N1CCC(C(=O)N2CCN(c3ccnc4cc(F)ccc34)CC2)C1 (stereo not shown) [Example 12, (4-(7-fluoroquinolin-4-yl)piperazin-1-yl)(1-((1,3,5-trimethyl-1H-pyrazol-4-yl)sulfonyl)pyrrolidin-3-yl)methanone]
> 90%	O=C(C1CCN(S(=O)(=O)c2ncc[nH]2)C1)N1CCN(c2ccnc3cc(F)ccc23)CC1 (stereo not shown) [Example 13, (1-((1H-imidazol-2-yl)sulfonyl)pyrrolidin-3-yl)(4-(7-fluoroquinolin-4-yl)piperazin-1-yl)methanone]
